63 compounds from patent publication US10189843B2, “Fused pyrazole derivative having autotaxin inhibitory activity” (The University of Tokyo, priority 2014, dated 2019) can be followed below.

pIC50: −log10 of the molar value.

As usually defined, the pIC50 is −log10 of the IC50, conventionally taken in molar units.

The assay deals with T1, Human autotaxin enzyme (Homo sapiens, UniProt Q13822).
T1 construct: purchased R&D System
Put plainly: Evaluation of autotaxin inhibitor, Method C (18:0 Lyso PC substrate, choline assay, Resorufin fluorescence). The assay is classed as biochemical. As to conditions: Method C (Test Example 3), read-out: Inhibitory activity (enzyme inhibitory activity, IC50). The method, then: Test Example 3 (Method C) Evaluation of Autotaxin Inhibitor
Solution B containing 100 mM Tris-HCl buffer (pH7.5), 150 mM NaCl, 5 mM MgCl2, and 0.05% Triton X-100 was prepared. Human autotaxin enzyme (purchased from R&D System) was diluted with Solution B, and 2.5 μl of which was added to a solution of test compound in DMSO. Furthermore, 2.5 μl of 200 μM 18:0 Lyso PC (purchased from Avanti Polar Lipids) in Solution B was added and allowed to react at room temperature for 2 hours. After completion of the reaction, 15 μl of the coline assay reagent (100 mM Tris-HCl buffer (pH7.5), 5 mM MgCl2, 77 μg/ml coline oxidase, 10 μg/ml peroxydase, 25 μM 10-acetyl-3,7-dihydroxyphenoxazine, and excess autotaxin inhibitor) was added and allowed to react at room temperature for 20 minutes. The fluorescent dye Resorufin, which was produced by the reaction, was detected. The fluorescence was detected using ViewLux (PerkinElmer, Inc.) with a excitation wavelength of 531 nm and a fluorescence wavelength of 598 nm.
The percent inhibition of the test compound was calculated by assuming the sample with no test compound as 0% inhibition and the sample with no enzyme as 100% inhibition, and the percent inhibitions at different concentrations of the test compound were plotted to obtain a concentration-dependent curve.
With `C[C@H]1CN(Cc2ccc(C#N)cc2)C(=O)c2cc(-c3ccc(Cl)cc3C#N)nn21` [Compound I-0298], the pIC50 is 6.00 to 7.00.

`CCCCCC1CN(Cc2ccccc2S(=O)(=O)N2CCOCC2)C(=O)c2cc(-c3ccc(Cl)cc3)nn21` (stereo not drawn) [Compound I-0139]: the pIC50 is at most 6.00.

Regarding `CCCCCC1CN(CC(=O)Nc2cccc(CC(=O)O)c2)C(=O)c2cc(-c3ccc(Cl)cc3)nn21` (stereo not drawn) [Compound I-0056], the pIC50 is 7.00 to 8.00.

For the compound `CCCCC1CN(CNC(=O)CC#N)C(=O)c2cc(-c3ccc(Cl)cc3)nn21` (stereo not drawn) [Compound I-0289], the pIC50 was 7.00 to 8.00.

As for `CCCCCCC1CCCN1C(=O)CN1CC(CCCCC)n2nc(-c3ccc(Cl)cc3)cc2C1=O` (stereo not drawn) [Compound I-0031], the negative-log IC50 (pIC50) is at most 6.00.

Take `C[C@H]1CN(Cc2ccc(C#N)cc2)C(=O)c2cc(-c3ccc(Cl)cc3)nn21` [Compound I-0165]: the pIC50 is at most 6.00.

As for `C[C@H]1CN(CC(=O)N(C)CC#N)C(=O)c2cc(-c3ccc(Cl)cc3NC(=O)C3CC3)nn21` [Compound I-0365], the pIC50 is 7.00 to 8.00.

As for `CCCCCC1CN(CC(=O)N2CCC(CC(=O)O)CC2)C(=O)c2cc(-c3ccc(Cl)cc3)nn21` (stereo not drawn) [Compound I-0048], the pIC50 was 7.00 to 8.00.

With `CCCCC1CN(CC(=O)NC(C#N)Cc2ccccc2)C(=O)c2cc(-c3ccc(Cl)cc3)nn21` (stereo not drawn) [Compound I-0331], the pIC50 is 6.00 to 7.00.

In the case of `CCCCC1CN(CNC(=O)CO)C(=O)c2cc(-c3ccc(Cl)cc3)nn21` (stereo not drawn) [Compound I-0290], the pIC50 was 6.00 to 7.00.

Regarding `CCCCCC1CN(CCO)C(=O)c2cc(-c3ccc(Cl)cc3)nn21` (stereo not drawn) [Compound I-0006], the pIC50 was 6.00 to 7.00.

Take `CCCCCC1CN(CC(=O)N2CCCCC2Cc2ccccc2)C(=O)c2cc(-c3ccc(Cl)cc3)nn21` (stereo not drawn) [Compound I-0030]: the pIC50 was at most 6.00.

For the compound `CCCCC1CN(c2ccc(CC(=O)O)cc2)C(=O)c2cc(-c3ccc(Cl)cc3)nn21` (stereo not drawn) [Compound I-0286], the pIC50 is at most 6.00.

As for `CCCCCC1CN(CC(=O)NCc2ccc(C(=O)O)cc2)C(=O)c2cc(-c3ccc(Cl)cc3)nn21` (stereo not drawn) [Compound I-0045], the pIC50 is 6.00 to 7.00.

For `CCCCCC1CN(Cc2ccccc2C)C(=O)c2cc(-c3ccc(Cl)cc3)nn21` (stereo not drawn) [Compound I-0127], the pIC50 was at most 6.00.

Take `C[C@H]1CN(Cc2ccc(C#N)cc2)C(=O)c2cc(-c3ccc(Cl)cc3NC(=O)CN(C)C)nn21` [Compound I-0332]: the pIC50 was 7.00 to 8.00.

Turning to `C[C@H]1CN(Cc2ccc(O)cc2)C(=O)c2cc(-c3ccc(Cl)cc3)nn21` [Compound I-0171], the pIC50 is at most 6.00.

With `CCCCCC1CN(Cc2ccccc2C#N)C(=O)c2cc(-c3ccc(Cl)cc3)nn21` (stereo not drawn) [Compound I-0129], the pIC50 is at most 6.00.

Consider `C[C@H]1CN(Cc2ccc(C#N)cc2)C(=O)c2cc(-c3ccc(Cl)cc3F)nn21` [Compound I-0327], for which the pIC50 was at most 6.00.

As to `CCCCC1CN(Cc2ccncc2)C(=O)c2cc(-c3ccc(Cl)cc3)nn21` (stereo not drawn) [Compound I-0257], the pIC50 is 6.00 to 7.00.

In the case of `CCCCCC1CN(Cc2ccc(O)cc2)C(=O)c2cc(-c3ccc(Cl)cc3)nn21` (stereo not drawn) [Compound I-0123], the pIC50 was at most 6.00.

For the compound `CCCCC1CN(CCN2CCOCC2)C(=O)c2cc(-c3ccc(Cl)cc3)nn21` (stereo not drawn) [Compound I-0273], the pIC50 was 6.00 to 7.00.

For the compound `C[C@H]1CN(Cc2ccccc2)C(=O)c2cc(-c3ccc(Cl)cc3)nn21` [Compound I-0172], the pIC50 is at most 6.00.

As to `CCOC(=O)CN1CC(CC)n2nc(-c3ccc(Cl)cc3)cc2C1=O` (stereo not drawn) [Compound I-0017], the pIC50 is at most 6.00.

For `CCCCC1CN(CC(=O)NCC#N)C(=O)c2cc(-c3ccc(Cl)cc3)nn21` (stereo not drawn) [Compound I-0213], the pIC50 is 7.00 to 8.00.

For the compound `C[C@H]1CN(CC(=O)N(C)CCC#N)C(=O)c2cc(-c3ccc(C#N)cc3NC(=O)CC(F)(F)F)nn21` [Compound I-0352], the pIC50 was 7.00 to 8.00.

With `C[C@H]1CN(Cc2ccc(C(N)=O)cc2)C(=O)c2cc(-c3ccc(Cl)cc3)nn21` [Compound I-0169], the pIC50 was at most 6.00.

For `CCCCCC1CN(Cc2ccccc2CS(=O)(=O)c2ccccc2)C(=O)c2cc(-c3ccc(Cl)cc3)nn21` (stereo not drawn) [Compound I-0144], the pIC50 was at most 6.00.

In the case of `CCCCC1CN(Cc2ccc(C#N)cc2)C(=O)c2cc(-c3ccc(Cl)cc3C#N)nn21` (stereo not drawn) [Compound I-0280], the pIC50 is 7.00 to 8.00.

On to `CCCCCC1CN(CC(=O)N2CCC[C@@H](C)C2)C(=O)c2cc(-c3ccc(Cl)cc3)nn21` (stereo partly drawn) [Compound I-0071], for which the negative-log IC50 (pIC50) was 6.00 to 7.00.

Turning to `CCCCC1CN(Cc2ccc(C#N)cc2)C(=O)c2cc(-c3ccc(Cl)cc3NC(C)=O)nn21` (stereo not drawn) [Compound I-0189], the pIC50 was 7.00 to 8.00.

Consider `C[C@H]1CN(Cc2ccc(C#N)cc2)C(=O)c2cc(-c3ccc(Cl)cc3CC#N)nn21` [Compound I-0300], for which the pIC50 was at most 6.00.

Consider `CCCOCC1CN(Cc2cccc(C(=O)O)c2)C(=O)c2cc(-c3ccc(Cl)cc3)nn21` (stereo not drawn) [Compound I-0176], for which the pIC50 was over 8.00.

Consider `CCCCCC1CN(CC(=O)N2CCNC(=O)C2)C(=O)c2cc(-c3ccc(Cl)cc3)nn21` (stereo not drawn) [Compound I-0037], for which the pIC50 was 7.00 to 8.00.

Consider `CCCCC1CN(CCNC(=O)OC(C)(C)C)C(=O)c2cc(-c3ccc(Cl)cc3)nn21` (stereo not drawn) [Compound I-0265], for which the pIC50 was 7.00 to 8.00.

In the case of `O=C(O)C1CCN(C(=O)CN2C(=O)c3cc(-c4ccc(Cl)cc4)nn3[C@@H]3CCC[C@@H]32)CC1` [Compound I-0013], the pIC50 is at most 6.00.

On to `CCCCC1CN(CC(=O)N2CCC[C@@H](C)C2)C(=O)c2cc(-c3ccc(Cl)cc3)nn21` (stereo partly drawn) [Compound I-0248], for which the pIC50 is 6.00 to 7.00.

In the case of `CCCCCC1CN(CC(=O)NCc2ccccc2)C(=O)c2cc(-c3ccc(Cl)cc3)nn21` (stereo not drawn) [Compound I-0099], the pIC50 was 6.00 to 7.00.

Turning to `CCCCCC1CN(CC(=O)N2CCC(O)CC2)C(=O)c2cc(-c3ccc(Cl)cc3)nn21` (stereo not drawn) [Compound I-0094], the pIC50 was 7.00 to 8.00.

Consider `CCOC(=O)CN1C[C@H](C)n2nc(-c3ccc(Cl)cc3)cc2C1=O` [Compound I-0019], for which the pIC50 is at most 6.00.

With `CCCCCC1CN(c2ccc(C(=O)O)cc2)C(=O)c2cc(-c3ccc(Cl)cc3)nn21` (stereo not drawn) [Compound I-0179], the pIC50 is 6.00 to 7.00.

In the case of `CCOC(=O)CN1C[C@@H](C)n2nc(-c3ccc(Cl)cc3)cc2C1=O` [Compound I-0020], the pIC50 is at most 6.00.

On to `CCCCC1CNC(=O)c2cc(-c3ccc(Cl)cc3)nn21` (stereo not drawn) [Compound I-0197], for which the pIC50 was at most 6.00.

On to `C[C@H]1CN(CC(=O)N2CCCC(C(=O)O)C2)C(=O)c2cc(-c3ccc(Cl)cc3)nn21` (stereo partly drawn) [Compound I-0159], for which the pIC50 is at most 6.00.

For `CCCCC1CN(CC(=O)NCC(C)(C)O)C(=O)c2cc(-c3ccc(Cl)cc3)nn21` (stereo not drawn) [Compound I-0229], the pIC50 is 6.00 to 7.00.

Take `CCCCC1CN(CC(=O)NCc2nn[nH]n2)C(=O)c2cc(-c3ccc(Cl)cc3)nn21` (stereo not drawn) [Compound I-0232]: the pIC50 is 7.00 to 8.00.

As to `CCCC1CN(Cc2ccc(C#N)cc2)C(=O)c2cc(-c3ccc(Cl)cc3)nn21` (stereo not drawn) [Compound I-0181], the pIC50 is 6.00 to 7.00.

Turning to `CCCCC1CN(CC(=O)OCC)C(=O)c2cc(-c3ccc(Cl)cc3)nn21` (stereo not drawn) [Compound I-0294], the pIC50 is 7.00 to 8.00.

With `CCOC(=O)CN1C(=O)c2cc(-c3ccc(Cl)cc3)nn2C2COCC21` (stereo not drawn) [Compound I-0027], the pIC50 is at most 6.00.

Take `CCCCCC1CN(CC(=O)NCCCCC(=O)O)C(=O)c2cc(-c3ccc(Cl)cc3)nn21` (stereo not drawn) [Compound I-0061]: the pIC50 is 7.00 to 8.00.

Regarding `O=C(O)C1CN(C(=O)CN2C(=O)c3cc(-c4ccc(Cl)cc4)nn3C3COCC32)C1` (stereo not drawn) [Compound I-0029], the pIC50 is at most 6.00.

For the compound `CCCCC1CN(CC(=O)NC(C#N)C#N)C(=O)c2cc(-c3ccc(Cl)cc3)nn21` (stereo not drawn) [Compound I-0231], the pIC50 is at most 6.00.

As for `CCCCC1CN(Cc2ccc(C#N)cc2)C(=O)c2cc(N3CCC(C(F)(F)F)CC3)nn21` (stereo not drawn) [Compound I-0305], the pIC50 is 6.00 to 7.00.

Regarding `CCCCCC1CNC(=O)c2cc(-c3ccc(Cl)cc3)nn21` (stereo not drawn) [Compound I-0001], the pIC50 was at most 6.00.

For `CCCCCC1CN(CC(=O)N2CCC(Cc3ccccc3)C2)C(=O)c2cc(-c3ccc(Cl)cc3)nn21` (stereo not drawn) [Compound I-0032], the pIC50 was 6.00 to 7.00.

`C[C@H]1CN(Cc2ccc(C#N)cc2)C(=O)c2cc(-c3ccc(Cl)cc3CO)nn21` [Compound I-0297]: the pIC50 is 6.00 to 7.00.

With `CCCCC1CN(CC2(c3ccc(OC)cc3)CC2)C(=O)c2cc(-c3ccc(Cl)cc3)nn21` (stereo not drawn) [Compound I-0272], the pIC50 was at most 6.00.

As for `N#Cc1ccc(CN2CC3CC/C=C\CC(=O)Nc4cc(Cl)ccc4-c4cc(n3n4)C2=O)cc1` (stereo not drawn) [Compound I-0358], the pIC50 is 7.00 to 8.00.

As for `CC(=O)Nc1cc(Cl)ccc1-c1cc2n(n1)[C@@H](C)CN(Cc1ccc(C#N)cc1)C2=O` [Compound I-0285], the pIC50 was over 8.00.

As for `CCCCCC1CN(CC(=O)N2CCC(c3ccccc3)CC2)C(=O)c2cc(-c3ccc(Cl)cc3)nn21` (stereo not drawn) [Compound I-0036], the pIC50 was 7.00 to 8.00.

With `CCCCCC1CN(CC(=O)Nc2ccccc2CC(=O)O)C(=O)c2cc(-c3ccc(Cl)cc3)nn21` (stereo not drawn) [Compound I-0067], the negative-log IC50 (pIC50) was 6.00 to 7.00.

With `CCCCCC1CN(CC(=O)NCCC(=O)O)C(=O)c2cc(-c3ccc(Cl)cc3)nn21` (stereo not drawn) [Compound I-0044], the pIC50 was 7.00 to 8.00.

For the compound `CCCCCC1CN(CC(=O)N2CCC[C@H](C(=O)O)C2)C(=O)c2cc(-c3ccc(Cl)cc3)nn21` (stereo partly drawn) [Compound I-0070], the pIC50 was 7.00 to 8.00.
